Data on 26 substances can be found in patent publication US20250339531A1, “DUX4 POLYPEPTIDES AND NUCLEIC ACIDS FOR TREATING INFLAMMATORY AND AUTOIMMUNE CONDITIONS” (Fred Hutchinson Cancer Center, priority 2021, published 2025).

This test has as its system proteins that co-immunoprecipitated with DUX4-CTD constructs expressed in MB135 myoblasts. The experiment in a line: LC-MS of proteins co-immunoprecipitated with DUX4-CTD (Table 1) and western validation. The class given is binding, human. More on the design: key to 4. mL1dL2 + Dox + IFNG / 4. + IFNG mix / 4. longCTD + Dox + IFNG / 3. + IFNg + Dox longCTD / 3. + Dox longCTD / 3. + IFNG longCTD: peptide-spectrum matches (PSMs) per protein. The note with it: for 4. longCTD + Dox + IFNG: LC-MS counts of the listed protein co-immunoprecipitated with DUX4-CTD bait longCTD; for 3. + Dox longCTD / 3. + IFNG longCTD / 3. + IFNg + Dox longCTD: bait longCTD; for 3. + Dox longCTD: experiment 3, Dox only; for 3. + IFNG longCTD: experiment 3, IFNG only, no doxycycline (bait at background level); for 3. + IFNg + Dox longCTD: experiment 3, IFNg + Dox; for SUM of PSMS: sum over all samples. From the text:
As an unbiased method to identify proteins that interact with the C-terminal region of DUX4, liquid chromatography mass spectroscopy (LC-MS) was used to identify proteins that co-immunoprecipitated with DUX4-CTD constructs expressed in MB135 myoblasts. In the first experiment, MB135iDUX4-CTD cells were used, either untreated, treated with doxycycline alone, or with both doxycycline and IFNG. In the second experiment, MB135iDUX4-CTD and MB135iDUX4mL1dL2 cells were used, both treated with doxycycline and IFNG, compared to these two cell lines untreated and combined as a control. Proteins with a minimum of 2 peptide spectrum matches (PSMs) in at least one sample that were identified in both experiments were assigned to one of ten categories (see Methods) to separate candidate interactors from other categories that might be co-purified because of obligate interactions (e.g., proteasome or ribosome) or might be less likely to be physiologically relevant (e.g., cytoskeletal proteins). Candidate interactors were then ranked based on the total PSMs for that protein across all samples.
Centrifugation at 2500 rcf at 4° C. for 5 min pelleted the nuclei, supernatant was discarded, and nuclei resuspended in 1 mL IP buffer pH 7.4 (25 mM Tris-HCl pH 7.5, 175 mM NaCl, 1 mM EDTA, 0.2% NP-40, 5% glycerol) and incubated for 1 hour at 4° C. with rotation then spun at 21000 rcf for 10 minutes at 4° C. to pellet insoluble debris. Protein concentration was determined using the Pierce BCA Protein Assay Kit (ThermoFisher, 23225). An equivalent amount of protein per sample was pre-cleared with Dynabeads Protein G (Invitrogen) bound to mouse IgG (Abcam #131368) for 1 hour at 4° C. with rotation. FLAG-tagged constructs were then immunoprecipitated with Dynabeads Protein G beads coupled to mouse anti-FLAG M2 mAb (Sigma F3165) for 3 hours at 4° C. with rotation. Beads were washed 3× with 1 mL IP buffer and eluted by adding 2× NuPage LDS Sample Buffer (Thermo Fisher, diluted from 4× with PBS) to the beads and heating for 10 minutes at 70° C.
For LC-MS, anti-FLAG immunoprecipitation was performed with beads cross-linked to the anti-FLAG antibody and the proteins competitively eluted with FLAG peptide. Eluted protein samples were electrophoresed into a NuPage 4-12% Bis-Tris gel, excised, and processed by the Fred Hutchinson Cancer Research Center Proteomics Core. Samples were reduced, alkylated, digested with trypsin, desalted, and run on the Orbitrap Eclipse Tribid Mass Spectrometer (Thermo Fisher). Proteomics data were analyzed using Proteome Discoverer 2.4 against a Uniprot human database that included common contaminants using Sequest HT and Percolator for scoring. […] Proteins that were identified in at least one sample from both independent experiments with at least 2 PSMs in one sample were assigned to one of ten categories: 1, candidates; 2, cytoskeletal associated; 3, cytoskeletal; 4, ribosome/translation associated; 5, proteasome associated; 6, membrane or extracellular; ER, golgi, or vesicle associated; 8, lipid metabolism; 9, chaperones; 10, nuclear import or nuclear membrane associated. The proteins in category 1 were further investigated for interactions with DUX4.

[1] abbreviates: LC-MS value per protein co-immunoprecipitated with DUX4-CTD construct mL1dL2 in MB135 myoblasts, + Dox + IFNG, kind of count not given.
The mark [2] stands for this setting: LC-MS counts of the listed protein co-immunoprecipitated with DUX4-CTD bait mL1dL2, experiment 4, Dox + IFNG.
[3] abbreviates: LC-MS counts of the listed protein in anti-FLAG co-IP, experiment 4, IFNG, no doxycycline, mix, MB135 myoblasts.
The mark [4] stands for this setting: LC-MS value per protein co-immunoprecipitated from MB135 myoblasts, + IFNG mix sample (no Dox), kind of count not given.

For the substance P35579, the “3. + Dox longCTD” value is 122, the “3. + IFNG longCTD” value stood at 8, the “3. + IFNg + Dox longCTD” value was 242 and the “SUM of PSMS” value stood at 387. The “4. longCTD + Dox + IFNG” value (experiment 4, Dox + IFNG) is listed as 4.
Take PSME2: the “4. mL1dL2 + Dox + IFNG” value under setting [1] worked out at 4.
As for PSMA6, under setting [1], the “4. mL1dL2 + Dox + IFNG” value was determined as 4.
Take Q9Y490: the “3. + Dox longCTD” value is reported as 1, the “3. + IFNg + Dox longCTD” value is given as 1 and the “SUM of PSMS” value worked out at 5. Also, the “4. longCTD + Dox + IFNG” value (experiment 4, Dox + IFNG) is 3.
As for P11021, the “3. + Dox longCTD” value was determined as 22, the “3. + IFNG longCTD” value came out at 1, the “3. + IFNg + Dox longCTD” value is recorded as 62 and the “SUM of PSMS” value is 209. Moreover, the “4. longCTD + Dox + IFNG” value (experiment 4, Dox + IFNG) turned out to be 44. Besides, under setting [2], the “4. mL1dL2 + Dox + IFNG” value was found to be 49. The “4. + IFNG mix” value under setting [3] is listed as 31.
For the substance Q9ULV4, the “3. + Dox longCTD” value worked out at 4, the “3. + IFNg + Dox longCTD” value is listed as 13 and the “SUM of PSMS” value is given as 24. For the same substance, the “4. longCTD + Dox + IFNG” value (experiment 4, Dox + IFNG) turned out to be 7.
Consider Q93008, for which the “3. + IFNg + Dox longCTD” value amounted to 5 and the “SUM of PSMS” value stood at 15. For the same substance, the “4. longCTD + Dox + IFNG” value (experiment 4, Dox + IFNG) is given as 3.
With MYH9, the “4. + IFNG mix” value under setting [4] is 10. In addition, the “4. mL1dL2 + Dox + IFNG” value under setting [1] turned out to be 1.
On to P06748, for which the “3. + Dox longCTD” value was 2, the “3. + IFNg + Dox longCTD” value is recorded as 8 and the “SUM of PSMS” value is given as 16.
In the case of Q15149, the “3. + Dox longCTD” value came out at 5, the “3. + IFNg + Dox longCTD” value was 21 and the “SUM of PSMS” value was 52. Also, the “4. longCTD + Dox + IFNG” value (experiment 4, Dox + IFNG) came to 7.
As for PRKDC, under setting [4], the “4. + IFNG mix” value is recorded as 11. In addition, the “4. mL1dL2 + Dox + IFNG” value under setting [1] is listed as 5.
Regarding AHNAK, the “4. + IFNG mix” value under setting [4] turned out to be 1.
In the case of Q00839, the “3. + Dox longCTD” value was determined as 4, the “3. + IFNg + Dox longCTD” value is given as 9 and the “SUM of PSMS” value was 14.
As to O60684, the “3. + Dox longCTD” value was 4, the “3. + IFNg + Dox longCTD” value was determined as 4 and the “SUM of PSMS” value was found to be 15. The “4. longCTD + Dox + IFNG” value (experiment 4, Dox + IFNG) is reported as 1. Under setting [2], the “4. mL1dL2 + Dox + IFNG” value was 6.
P52294: the “3. + Dox longCTD” value is 4, the “3. + IFNg + Dox longCTD” value came to 8 and the “SUM of PSMS” value is on record as 15. The “4. longCTD + Dox + IFNG” value (experiment 4, Dox + IFNG) is recorded as 2. Moreover, the “4. mL1dL2 + Dox + IFNG” value under setting [2] is 1.
For P4HB, the “4. + IFNG mix” value under setting [4] amounted to 9. Further, under setting [1], the “4. mL1dL2 + Dox + IFNG” value stood at 20.
For TUBB4B, under setting [4], the “4. + IFNG mix” value stood at 13. The “4. mL1dL2 + Dox + IFNG” value under setting [1] was determined as 47.
For the substance ENO1, the “4. + IFNG mix” value under setting [4] amounted to 6. Besides, under setting [1], the “4. mL1dL2 + Dox + IFNG” value was determined as 3.
In the case of Q14315, the “3. + Dox longCTD” value is listed as 2, the “3. + IFNg + Dox longCTD” value was 7 and the “SUM of PSMS” value stood at 24. Moreover, for the setting “experiment 4, Dox + IFNG”, the “4. longCTD + Dox + IFNG” value turned out to be 12.
Take P50991: the “3. + IFNg + Dox longCTD” value stood at 1 and the “SUM of PSMS” value is 5. The “4. longCTD + Dox + IFNG” value (experiment 4, Dox + IFNG) is given as 1. Also, the “4. mL1dL2 + Dox + IFNG” value under setting [2] was determined as 3.
Take P38646: the “3. + Dox longCTD” value was 1, the “3. + IFNg + Dox longCTD” value is listed as 10 and the “SUM of PSMS” value is reported as 30. Moreover, the “4. longCTD + Dox + IFNG” value (experiment 4, Dox + IFNG) was found to be 7. In addition, under setting [2], the “4. mL1dL2 + Dox + IFNG” value was determined as 11. Also, the “4. + IFNG mix” value under setting [3] came to 1.
STK38: the “4. + IFNG mix” value under setting [4] was 4.
For the substance P47929, the “3. + Dox longCTD” value is listed as 1, the “3. + IFNg + Dox longCTD” value stood at 1 and the “SUM of PSMS” value amounted to 8. Also, for the setting “experiment 4, Dox + IFNG”, the “4. longCTD + Dox + IFNG” value came to 6.
For P48681, the “3. + Dox longCTD” value came to 4, the “3. + IFNG longCTD” value is on record as 1, the “3. + IFNg + Dox longCTD” value was 4 and the “SUM of PSMS” value was determined as 18. The “4. longCTD + Dox + IFNG” value (experiment 4, Dox + IFNG) worked out at 2.
On to PABPC1, for which the “4. mL1dL2 + Dox + IFNG” value under setting [1] is 5.
As for Q09666, the “3. + Dox longCTD” value came to 8, the “3. + IFNg + Dox longCTD” value is on record as 4 and the “SUM of PSMS” value was found to be 14. For the same substance, the “4. longCTD + Dox + IFNG” value (experiment 4, Dox + IFNG) came out at 1.
